# Assay results from ChEMBL document CHEMBL3885861, “Open TG-GATES”.
# Organism: Rattus norvegicus
# Test: Open TG-GATES - Regimen: Daily Repeat
# Type: toxicity, organism-based, Sprague-Dawley
# Parameters: regimen Daily Repeat, gender Male, age 6 weeks
# Settings: in vivo, po, route gavage; for TP / gamma-GTP / ALP / ALT / AST / BUN / CRE / DBIL / GLC / IP / K / LDH / Na / PL / RALB / TBIL / TC / TG: tissue Plasma; for APTT / Bas / Eos / Fbg / Hb / Ht / Lym / MCH / MCHC / MCV / Mono / Neu / PT / Plat / RBC / Ret / WBC: tissue Blood; for KIDNEY_L / KIDNEY_R / KIDNEY_TOTAL: tissue Kidney; for LIVER: tissue Liver
# [1] = 45 mg/kg, […], dose level Low, time 28 day
# [2] = 150 mg/kg, 72 h, dose level Middle, time 3 day
# [3] = 150 mg/kg, […], dose level Middle, time 7 day
# [4] = 150 mg/kg, […], dose level Middle, time 14 day
# [5] = 150 mg/kg, […], dose level Middle, time 28 day
# [6] = 450 mg/kg, 72 h, dose level High, time 3 day
# [7] = 450 mg/kg, […], dose level High, time 7 day
# [8] = 450 mg/kg, […], dose level High, time 14 day
# [9] = 450 mg/kg, […], dose level High, time 28 day
structure (smiles),measurement,setting,value
CC(CCc1ccccc1)NCC(O)c1ccc(O)c(C(N)=O)c1 (stereo not drawn) [LABETALOL],TP,[1],6.4 g/dL
same,gamma-GTP,[1],1 IU/L
same,TERMINAL_BW,[2],253.6 g
same,APTT,[2],16.1 s
same,Bas,[2],0.2%
same,Eos,[2],0.8%
same,Fbg,[2],278 mg/dL
same,Hb,[2],13.8 g/dL
same,Ht,[2],40.7%
same,Lym,[2],75%
same,MCH,[2],21.7 pg
same,MCHC,[2],33.9%
same,MCV,[2],64 fL
same,Mono,[2],2.6%
same,Neu,[2],21.2%
same,PT,[2],12.9 s
same,Plat,[2],117.8 x10_4/uL
same,RBC,[2],636.6 x10_4/ul
same,Ret,[2],7.2%
same,WBC,[2],104.5 x10_2/uL
same,KIDNEY_L,[2],1 g
same,KIDNEY_R,[2],1 g
same,KIDNEY_TOTAL,[2],2 g
same,LIVER,[2],11.7 g
same,ALP,[2],2122.4 IU/L
same,ALT,[2],47 IU/L
same,AST,[2],76.8 IU/L
same,BUN,[2],16.6 mg/dL
same,CRE,[2],0.2 mg/dL
same,DBIL,[2],0.018 mg/dL
same,GLC,[2],180 mg/dL
same,IP,[2],7.8 mg/dL
same,K,[2],4 meq/L
same,LDH,[2],65.6 IU/L
same,Na,[2],145 meq/L
same,PL,[2],155.4 mg/dL
same,RALB,[2],2.7 g/dL
same,TBIL,[2],0.028 mg/dL
same,TC,[2],84.8 mg/dL
same,TG,[2],120.6 mg/dL
same,TP,[2],5.9 g/dL
same,gamma-GTP,[2],1 IU/L
same,TERMINAL_BW,[3],288.5 g
same,TERMINAL_BW,[4],339.7 g
same,TERMINAL_BW,[5],424.9 g
same,APTT,[3],17.3 s
same,Bas,[3],0%
same,Eos,[3],1%
same,Fbg,[3],310.4 mg/dL
same,Hb,[3],14.8 g/dL
same,Ht,[3],42.8%
same,Lym,[3],73.4%
same,MCH,[3],21.3 pg
same,MCHC,[3],34.5%
same,MCV,[3],61.9 fL
same,Mono,[3],2.6%
same,Neu,[3],22.2%
same,PT,[3],12.9 s
same,Plat,[3],110.9 x10_4/uL
same,RBC,[3],693.2 x10_4/ul
same,Ret,[3],5.2%
same,WBC,[3],92.4 x10_2/uL
same,APTT,[4],17.1 s
same,Bas,[4],0.2%
same,Eos,[4],1.2%
same,Fbg,[4],300.4 mg/dL
same,Hb,[4],14.9 g/dL
same,Ht,[4],42.9%
same,Lym,[4],71.2%
same,MCH,[4],20.6 pg
same,MCHC,[4],34.6%
same,MCV,[4],59.5 fL
same,Mono,[4],2.2%
same,Neu,[4],24.8%
same,PT,[4],13.1 s
same,RBC,[4],721.4 x10_4/ul
same,Ret,[4],4.3%
same,WBC,[4],99.2 x10_2/uL
same,APTT,[5],19 s
same,Bas,[5],0.4%
same,Eos,[5],1.4%
same,Fbg,[5],286.4 mg/dL
same,Hb,[5],15.6 g/dL
same,Ht,[5],44.3%
same,Lym,[5],71.8%
same,MCH,[5],19.8 pg
same,MCHC,[5],35.2%
same,MCV,[5],56.1 fL
same,Mono,[5],3%
same,Neu,[5],23.2%
same,PT,[5],13.5 s
same,Plat,[5],96.8 x10_4/uL
same,RBC,[5],789.8 x10_4/ul
same,Ret,[5],2.1%
same,WBC,[5],110.3 x10_2/uL
same,KIDNEY_L,[3],1.2 g
same,KIDNEY_R,[3],1.2 g
same,KIDNEY_TOTAL,[3],2.4 g
same,KIDNEY_L,[4],1.2 g
same,KIDNEY_R,[4],1.2 g
same,KIDNEY_TOTAL,[4],2.4 g
same,KIDNEY_L,[5],1.4 g
same,KIDNEY_R,[5],1.4 g
same,KIDNEY_TOTAL,[5],2.8 g
same,LIVER,[3],12.6 g
same,LIVER,[4],13.3 g
same,LIVER,[5],15.6 g
same,ALP,[3],1724.6 IU/L
same,ALT,[3],51 IU/L
same,AST,[3],76 IU/L
same,BUN,[3],14.8 mg/dL
same,CRE,[3],0.2 mg/dL
same,DBIL,[3],0.02 mg/dL
same,GLC,[3],183.2 mg/dL
same,K,[3],3.8 meq/L
same,LDH,[3],68.4 IU/L
same,Na,[3],142.8 meq/L
same,PL,[3],150.8 mg/dL
same,RALB,[3],2.8 g/dL
same,TBIL,[3],0.034 mg/dL
same,TC,[3],78 mg/dL
same,TG,[3],141.2 mg/dL
same,TP,[3],6.1 g/dL
same,gamma-GTP,[3],1 IU/L
same,ALP,[4],1359.8 IU/L
same,ALT,[4],50.6 IU/L
same,AST,[4],74.4 IU/L
same,BUN,[4],17.2 mg/dL
same,CRE,[4],0.2 mg/dL
same,DBIL,[4],0.012 mg/dL
same,GLC,[4],174.6 mg/dL
same,IP,[4],8.6 mg/dL
same,K,[4],3.9 meq/L
same,LDH,[4],58.6 IU/L
same,Na,[4],145.4 meq/L
same,PL,[4],148.6 mg/dL
same,RALB,[4],2.8 g/dL
same,TBIL,[4],0.026 mg/dL
same,TC,[4],81.6 mg/dL
same,TG,[4],88.8 mg/dL
same,TP,[4],6.3 g/dL
same,gamma-GTP,[4],1.4 IU/L
same,ALP,[5],865.6 IU/L
same,ALT,[5],60.2 IU/L
same,AST,[5],78.2 IU/L
same,BUN,[5],18.4 mg/dL
same,CRE,[5],0.3 mg/dL
same,DBIL,[5],0.026 mg/dL
same,GLC,[5],185.6 mg/dL
same,IP,[5],7.3 mg/dL
same,K,[5],3.6 meq/L
same,LDH,[5],69.4 IU/L
same,Na,[5],143.4 meq/L
same,PL,[5],132 mg/dL
same,RALB,[5],2.8 g/dL
same,TBIL,[5],0.038 mg/dL
same,TC,[5],74 mg/dL
same,TG,[5],113 mg/dL
same,TP,[5],6.2 g/dL
same,gamma-GTP,[5],1.2 IU/L
same,TERMINAL_BW,[6],240.1 g
same,APTT,[6],17 s
same,Bas,[6],0%
same,Eos,[6],0.8%
same,Fbg,[6],275.8 mg/dL
same,Hb,[6],13.6 g/dL
same,Ht,[6],39.8%
same,Lym,[6],79%
same,MCH,[6],21.2 pg
same,MCHC,[6],34.2%
same,MCV,[6],61.9 fL
same,Mono,[6],2.4%
same,Neu,[6],17.2%
same,PT,[6],12.9 s
same,Plat,[6],114.3 x10_4/uL
same,RBC,[6],644 x10_4/ul
same,Ret,[6],6.4%
same,WBC,[6],89.1 x10_2/uL
same,KIDNEY_L,[6],1 g
same,KIDNEY_R,[6],1 g
same,KIDNEY_TOTAL,[6],2 g
same,LIVER,[6],9.9 g
same,ALP,[6],1714 IU/L
same,ALT,[6],45.4 IU/L
same,AST,[6],61.8 IU/L
same,BUN,[6],16.4 mg/dL
same,CRE,[6],0.2 mg/dL
same,DBIL,[6],0.014 mg/dL
same,GLC,[6],162.8 mg/dL
same,IP,[6],7.1 mg/dL
same,K,[6],4.4 meq/L
same,LDH,[6],45.2 IU/L
same,Na,[6],142.6 meq/L
same,PL,[6],142.8 mg/dL
same,RALB,[6],2.6 g/dL
same,TBIL,[6],0.038 mg/dL
same,TC,[6],88 mg/dL
same,TG,[6],43.6 mg/dL
same,TP,[6],5.6 g/dL
same,gamma-GTP,[6],1 IU/L
same,TERMINAL_BW,[7],269.7 g
same,TERMINAL_BW,[8],293.4 g
same,TERMINAL_BW,[9],333.5 g
same,APTT,[7],17.5 s
same,Bas,[7],0%
same,Eos,[7],0.8%
same,Fbg,[7],266.4 mg/dL
same,Hb,[7],14.1 g/dL
same,Ht,[7],40.5%
same,Lym,[7],77.8%
same,MCH,[7],21.1 pg
same,MCHC,[7],34.7%
same,MCV,[7],60.7 fL
same,Mono,[7],3.4%
same,Neu,[7],17.4%
same,PT,[7],13.5 s
same,Plat,[7],97.4 x10_4/uL
same,RBC,[7],667.6 x10_4/ul
same,Ret,[7],4%
same,WBC,[7],80.1 x10_2/uL
same,APTT,[8],18.2 s
same,Bas,[8],0%
same,Eos,[8],1%
same,Fbg,[8],278 mg/dL
same,Hb,[8],15.3 g/dL
same,Ht,[8],44.1%
same,Lym,[8],78.3%
same,MCH,[8],20.6 pg
same,MCHC,[8],34.8%
same,MCV,[8],59.1 fL
same,Mono,[8],2%
same,Neu,[8],17.7%
same,PT,[8],13.6 s
same,Plat,[8],94.8 x10_4/uL
same,RBC,[8],745 x10_4/ul
same,Ret,[8],2.9%
same,WBC,[8],85.7 x10_2/uL
same,APTT,[9],19.7 s
same,Bas,[9],0%
same,Eos,[9],1%
same,Fbg,[9],228.5 mg/dL
same,Hb,[9],15.9 g/dL
same,Ht,[9],44.5%
same,Lym,[9],78.5%
same,MCH,[9],19.5 pg
same,MCHC,[9],35.6%
same,MCV,[9],54.7 fL
same,Mono,[9],2%
same,Neu,[9],18%
same,PT,[9],14.7 s
same,Plat,[9],79 x10_4/uL
same,RBC,[9],813.5 x10_4/ul
same,Ret,[9],1%
same,WBC,[9],104.3 x10_2/uL
same,KIDNEY_L,[7],1.2 g
same,KIDNEY_R,[7],1.1 g
same,KIDNEY_TOTAL,[7],2.3 g
same,KIDNEY_L,[8],1.1 g
same,KIDNEY_R,[8],1.2 g
same,KIDNEY_TOTAL,[8],2.3 g
same,KIDNEY_L,[9],1.4 g
same,KIDNEY_R,[9],1.3 g
same,KIDNEY_TOTAL,[9],2.6 g
same,LIVER,[7],11 g
same,LIVER,[8],10.8 g
same,LIVER,[9],11.6 g
same,ALP,[7],1741.8 IU/L
same,ALT,[7],55.8 IU/L
same,AST,[7],65.8 IU/L
same,BUN,[7],16.2 mg/dL
same,CRE,[7],0.2 mg/dL
same,DBIL,[7],0.008 mg/dL
same,GLC,[7],162.2 mg/dL
same,K,[7],4.3 meq/L
same,LDH,[7],50 IU/L
same,Na,[7],142.4 meq/L
same,PL,[7],149.8 mg/dL
same,RALB,[7],2.6 g/dL
same,TBIL,[7],0.03 mg/dL
same,TC,[7],91.2 mg/dL
same,TG,[7],37.2 mg/dL
same,TP,[7],5.7 g/dL
same,gamma-GTP,[7],1.2 IU/L
same,ALP,[8],1433.3 IU/L
same,ALT,[8],45.3 IU/L
same,AST,[8],61.3 IU/L
same,BUN,[8],18.7 mg/dL
same,CRE,[8],0.3 mg/dL
same,DBIL,[8],0.01 mg/dL
same,GLC,[8],176.7 mg/dL
same,K,[8],3.8 meq/L
same,LDH,[8],47.7 IU/L
same,Na,[8],145.3 meq/L
same,PL,[8],138 mg/dL
same,RALB,[8],2.7 g/dL
same,TBIL,[8],0.0267 mg/dL
same,TC,[8],79.3 mg/dL
same,TG,[8],38.3 mg/dL
same,TP,[8],6 g/dL
same,gamma-GTP,[8],1.3 IU/L
same,ALP,[9],1187.5 IU/L
same,ALT,[9],54 IU/L
same,AST,[9],70 IU/L
same,BUN,[9],25 mg/dL
same,CRE,[9],0.3 mg/dL
same,DBIL,[9],0.02 mg/dL
same,GLC,[9],159.5 mg/dL
same,IP,[9],7.8 mg/dL
same,K,[9],4.2 meq/L
same,LDH,[9],38.5 IU/L
same,Na,[9],141 meq/L
same,PL,[9],125.5 mg/dL
same,RALB,[9],2.7 g/dL
same,TBIL,[9],0.04 mg/dL
same,TC,[9],62 mg/dL
same,TG,[9],61.5 mg/dL
same,TP,[9],6 g/dL
same,gamma-GTP,[9],2 IU/L
